Assay results taken from patent US20260103465A1, “GLYCOGEN SYNTHASE KINASE 3 INHIBITORS AND USES THEREOF” (The Broad Institute, Inc., priority 2023, published 2026).
Like-named read-outs stand apart in the source and are kept apart here.

Columns and labels:
[1] = target: T1, GSK3a (GST-full length GSK3a) (Homo sapiens, UniProt P49840); assay: GSK3a TR-FRET kinase inhibition assay; type: biochemical
T1 construct: GST-full length GSK3a [SignalChem G08-10G]; purchased SignalChem G08-10G
Method in brief: (§1)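 GST-tagged full-length human kinase (1 nM), pre-incubated 30 min with compound, then reacted 100 min at ambient temperature at pH 7.5 with 200 nM biotinylated phospho-S645 glycogen synthase 631–650 peptide and ATP at 2 μM–1 mM. After EDTA quench, Tb-pSer641 antibody/streptavidin-d2 TR-FRET 665/615 ratio fitted for IC50.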

[2] = target: T2, GSK3b (GST-full length GSK3b) (Homo sapiens, UniProt P49841); assay: GSK3b TR-FRET kinase inhibition assay; type: biochemical
T2 construct: GST-full length GSK3b: [SignalChem G08-9G]; purchased SignalChem G08-9G
Method in brief: as §1

[3] = 1 mM ATP, Table 5, read-out: GSK3α TR-FRET 1 mM ATP Average IC50
[4] = 1 mM ATP, Table 5, read-out: GSK3β TR-FRET 1 mM ATP Average IC50
[5] = 1 mM ATP, Table 3, read-out: GSK3a TR-FRET 1 mM ATP Average IC50
[6] = 1 mM ATP, Table 3, read-out: GSK3b TR-FRET 1 mM ATP Average IC50
[7] = 4 μM ATP, read-out: GSK3α TR-FRET 4 μM ATP GMean IC50
[8] = 2 μM ATP, read-out: GSK3β TR-FRET 2 μM ATP GMean IC50
[9] = 100 μM ATP, read-out: GSK3a 100 μM ATP Average IC50
[10] = 100 μM ATP, read-out: GSK3b 100 μM ATP Average IC50

T1 sequence (P49840 whole entry): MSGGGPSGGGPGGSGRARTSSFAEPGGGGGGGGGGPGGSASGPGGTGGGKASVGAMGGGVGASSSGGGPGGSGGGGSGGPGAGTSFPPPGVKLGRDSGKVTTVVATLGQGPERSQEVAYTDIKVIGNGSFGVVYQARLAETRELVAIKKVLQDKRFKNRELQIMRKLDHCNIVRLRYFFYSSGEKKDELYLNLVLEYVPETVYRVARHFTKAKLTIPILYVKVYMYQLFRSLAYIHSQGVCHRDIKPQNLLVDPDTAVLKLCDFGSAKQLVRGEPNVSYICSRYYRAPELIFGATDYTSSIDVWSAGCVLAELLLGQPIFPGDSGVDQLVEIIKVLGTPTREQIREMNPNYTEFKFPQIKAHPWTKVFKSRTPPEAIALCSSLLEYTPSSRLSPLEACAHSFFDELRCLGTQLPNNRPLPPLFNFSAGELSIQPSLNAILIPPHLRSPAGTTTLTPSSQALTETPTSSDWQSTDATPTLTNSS
T2 sequence (P49841 whole entry): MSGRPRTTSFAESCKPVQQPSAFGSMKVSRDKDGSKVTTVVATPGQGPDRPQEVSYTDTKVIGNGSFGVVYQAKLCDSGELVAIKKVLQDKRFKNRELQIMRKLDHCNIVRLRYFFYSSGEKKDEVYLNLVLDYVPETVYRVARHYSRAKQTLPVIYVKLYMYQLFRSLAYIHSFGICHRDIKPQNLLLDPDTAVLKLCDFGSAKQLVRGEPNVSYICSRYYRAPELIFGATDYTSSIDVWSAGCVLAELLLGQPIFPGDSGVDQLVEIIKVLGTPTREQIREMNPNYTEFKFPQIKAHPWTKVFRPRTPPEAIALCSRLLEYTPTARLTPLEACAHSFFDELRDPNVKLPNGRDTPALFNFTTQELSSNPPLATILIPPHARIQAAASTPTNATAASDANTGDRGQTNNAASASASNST

Compound | IC50 [1, 3] [nM] | IC50 [2, 4] [nM] | IC50 [1, 5] [nM] | IC50 [2, 6] [nM] | further results
CNc1cnc2c(c1C#N)C(C)(c1ccccc1)C1=C(CC(C)(C)CC1=O)N2 (single isomer, unassigned) [610B] | 5000 to 20000 | 5000 to 20000 | – | – | –
CC1(C)CC(=O)C2=C(C1)Nc1nccc(F)c1C2(C)c1ccccc1 (single isomer, unassigned) [Compound 105B] | – | – | 1000 to 5000 | 1000 to 5000 | –
CC1(C)CC(=O)C2=C(C1)Nc1ncccc1C2(C)c1cccc(-c2ccncc2N2CCCC2)c1 (single isomer, unassigned) [Compound 158A] | – | – | 100 to 1000 | 100 to 1000 | –
CC1(C)CC(=O)C2=C(C1)Nc1ncccc1C2(C)c1cccc(-c2ccncc2CC(F)(F)F)c1 (single isomer, unassigned) [Compound 163A] | – | – | 100 to 1000 | 100 to 1000 | –
CC1(C)CC(=O)C2=C(C1)Nc1ncc(F)c(C#N)c1C2(C)c1cccc(-c2ccncc2CC(F)(F)F)c1 (single isomer, unassigned) [656B] | ≤ 100 | ≤ 100 | – | – | –
CCC1(c2cccc(-c3ccnn3C)c2)C2=C(CC(C)(C)CC2=O)Nc2ncccc21 (single isomer, unassigned) [Compound 1019B] | – | – | – | – | IC50 [1, 7]: > 5000 nM; IC50 [2, 8]: > 5000 nM
CCC1(c2cccc(C3CCC3)c2)C2=C(CC(C)(C)CC2=O)Nc2ncccc21 (racemic) [Compound 1012] | – | – | – | – | IC50 [1, 7]: ≤ 100 nM; IC50 [2, 8]: ≤ 100 nM
CCC1(c2cccc(-c3ccnc4c3CCC4)c2)C2=C(CC(C)(C)CC2=O)Nc2ncccc21 (single isomer, unassigned) [Compound 1034A] | – | – | – | – | IC50 [1, 7]: > 5000 nM; IC50 [2, 8]: > 5000 nM
CCC1(c2cccc(-c3ccnc(C)c3)c2)C2=C(CC(C)(C)CC2=O)Nc2ncccc21 (single isomer, unassigned) [Compound 1021B] | – | – | – | – | IC50 [1, 7]: 100 to 1000 nM; IC50 [2, 8]: 100 to 1000 nM
CC(C)Oc1cccc(C2(C)C3=C(CC(C)(C)CC3=O)Nc3ncc(C(F)F)c(C#N)c32)c1 (single isomer, unassigned) [650B] | 100 to 1000 | 100 to 1000 | – | – | –
CC1(C)CC(=O)C2=C(C1)Nc1ncc(C#N)c(C#N)c1C2(C)c1ccccc1 (single isomer, unassigned) [605B] | 5000 to 20000 | 5000 to 20000 | – | – | –
CC1(C)CC(=O)C2=C(C1)Nc1ncc(C(F)(F)F)c(C#N)c1C2(C)c1ccccc1 (single isomer, unassigned) [Compound 137A] | – | – | 1000 to 5000 | 100 to 1000 | –
CC1(C)CC(=O)C2=C(C1)Nc1ncc(F)c(C3CC3)c1C2(C)c1cccc(S(C)(=O)=O)c1 (single isomer, unassigned) [Compound 153B] | – | – | 5000 to 20000 | 5000 to 20000 | –
CC1(C)CC(=O)C2=C(C1)Nc1ncc(F)c(C(F)(F)F)c1C2(C)c1ccccc1 (single isomer, unassigned) [Compound 135B] | – | – | 5000 to 20000 | 1000 to 5000 | –
CC1(C)CC(=O)C2=C(Nc3ncc(C(F)F)c(C#N)c3[C@@]2(C)c2ccccc2)[C@H]1F (single isomer, unassigned) [Compound 633D] | 1000 to 5000 | 100 to 1000 | – | – | –
CC1(C)CC(=O)C2=C(C1)Nc1ncc(F)c(C#N)c1C2(C)c1cccc(C(F)F)c1 (single isomer, unassigned) [634B] | ≤ 100 | ≤ 100 | – | – | –
CCC1(c2cccc(-c3cnnc(C)c3)c2)C2=C(CC(C)(C)CC2=O)Nc2ncccc21 (single isomer, unassigned) [Compound 1022B] | – | – | – | – | IC50 [1, 7]: > 5000 nM; IC50 [2, 8]: > 5000 nM

Compound | IC50 [1, 3] [nM] | IC50 [2, 4] [nM] | IC50 [1, 5] [nM] | IC50 [2, 6] [nM] | further results
CCC1(c2cccc(-c3ccnn3C)c2)C2=C(CC(C)(C)CC2=O)Nc2ncc(F)cc21 (single isomer, unassigned) [Compound 1025B] | – | – | – | – | IC50 [1, 7]: 100 to 1000 nM; IC50 [2, 8]: > 5000 nM
CC(C)c1ccnc2c1C(C)(c1ccccc1)C1=C(CC(C)(C)CC1=O)N2 (single isomer, unassigned) [Compound 120A] | – | – | 1000 to 5000 | 100 to 1000 | –
CC(C)n1cncc1-c1cccc(C2(C)C3=C(CC(C)(C)CC3=O)Nc3ncc(C(F)(F)F)cc32)c1 (single isomer, unassigned) [Compound 171A] | – | – | 1000 to 5000 | 1000 to 5000 | –
CCC1(c2cccc(-c3ccccn3)c2)C2=C(CC(C)(C)CC2=O)Nc2ncccc21 (single isomer, unassigned) [Compound 1016B] | – | – | – | – | IC50 [1, 7]: 1000 to 5000 nM; IC50 [2, 8]: > 5000 nM
CC1(C)CC(=O)C2=C(C1)Nc1nccc(CC(F)(F)F)c1C2(C)c1ccccc1 (single isomer, unassigned) [Compound 132B] | – | – | 5000 to 20000 | 1000 to 5000 | –
C=Cc1ccnc2c1C(C)(c1ccccc1)C1=C(CC(C)(C)CC1=O)N2 (single isomer, unassigned) [Compound 111A] | – | – | 100 to 1000 | 100 to 1000 | IC50 [1, 9]: ≤ 100 nM; IC50 [2, 10]: ≤ 100 nM
Cc1c(F)cnc2c1C(C)(c1cccc(S(C)(=O)=O)c1)C1=C(CC(C)(C)CC1=O)N2 (single isomer, unassigned) [Compound 144A] | – | – | 100 to 1000 | 100 to 1000 | –
CC1(C)CC(=O)C2=C(C1)Nc1ncccc1C2(C)c1cccc(-c2ccncc2OCC(F)F)c1 (single isomer, unassigned) [Compound 162A] | – | – | 5000 to 20000 | 1000 to 5000 | –
CCC1(c2ccccc2)C2=C(CC(C)(C)CC2=O)Nc2ncc(F)cc21 (single isomer, unassigned) [114 A] | – | – | – | – | IC50 [1, 7]: ≤ 100 nM; IC50 ([1]; 1 mM ATP, Table 4, read-out: GSK3α TR-FRET 1 mM ATP GMean IC50): 100 to 1000 nM; IC50 [2, 8]: ≤ 100 nM; IC50 ([2]; 1 mM ATP, Table 4, read-out: GSK3β TR-FRET 1 mM ATP GMean IC50): 1000 to 5000 nM
CC1(C)CC(=O)C2=C(C1)Nc1ncc(F)c(C#N)c1C2(C)c1cccc(-c2ccncc2CC(F)(F)F)c1 (single isomer, unassigned) [656A] | 100 to 1000 | 100 to 1000 | – | – | –
CC1(C)CC(=O)C2=C(C1)Nc1ncc3ccccc3c1C2(C)c1ccccc1 (single isomer, unassigned) [606B] | 1000 to 5000 | 1000 to 5000 | – | – | –
CCC1(c2cccc(-c3ccnc(C)c3C)c2)C2=C(CC(C)(C)CC2=O)Nc2ncccc21 (single isomer, unassigned) [Compound 147A] | – | – | 100 to 1000 | 1000 to 5000 | –
COc1cnc2c(c1C#N)C(C)(c1ccccc1)C1=C(CC(C)(C)CC1=O)N2 (single isomer, unassigned) [612B] | 5000 to 20000 | 5000 to 20000 | – | – | –
CC1(C)CC(=O)C2=C(C1)Nc1ncc(C(F)(F)F)cc1C2(C)c1cccc(C(F)F)c1 (single isomer, unassigned) [646B] | 1000 to 5000 | 100 to 1000 | – | – | –
CC1(C)CC(=O)C2=C(Nc3ncc(F)c(C#N)c3[C@]2(C)c2ccccc2)[C@@H]1F (single isomer, unassigned) [Compound 617C] | 5000 to 20000 | 5000 to 20000 | – | – | –
Cc1ccnc2c1C(C)(c1ccccc1)C1=C(CC(C)(C)CC1=O)N2 (single isomer, unassigned) [Compound 104A] | – | – | 1000 to 5000 | 1000 to 5000 | IC50 [1, 9]: ≤ 100 nM; IC50 [2, 10]: 100 to 1000 nM
CC1(C)CC2=C(C(=O)N1)C(C)(c1cccc(S(C)(=O)=O)c1)c1cc(C(F)(F)F)cnc1N2 (single isomer, unassigned) [651B] | 100 to 1000 | 100 to 1000 | – | – | –

The next lines start with results.

IC50 [1, 3] [nM] | IC50 [2, 4] [nM] | IC50 [1, 5] [nM] | IC50 [2, 6] [nM] | Compound | further results
5000 to 20000 | 5000 to 20000 | – | – | CC1(C)CC2=C(C(=O)[C@H]1F)[C@](C)(c1ccccc1)c1c(ncc(F)c1C#N)N2 (single isomer, unassigned) [Compound 616D] | –
100 to 1000 | 100 to 1000 | – | – | CC1(C)CC(=O)C2=C(C1)Nc1ncc(F)cc1C2(C)c1cccc(C(F)F)c1 (single isomer, unassigned) [623B] | –
5000 to 20000 | 5000 to 20000 | – | – | CC1(C)CC2=C(C(=O)[C@H]1F)[C@@](C)(c1ccccc1)c1c(ncc(F)c1C#N)N2 (single isomer, unassigned) [Compound 616C] | –
– | – | 100 to 1000 | 100 to 1000 | CC1(C)CC(=O)C2=C(C1)Nc1ncc(F)c(C3CC3)c1C2(C)c1ccccc1 (single isomer, unassigned) [Compound 125A] | –
– | – | 5000 to 20000 | 5000 to 20000 | CC1(C)CC(=O)C2=C(C1)Nc1ncc(Br)c(Cl)c1C2(C)c1ccccc1 (single isomer, unassigned) [Compound 145B] | –
– | – | 1000 to 5000 | 1000 to 5000 | CC1(C)CC(=O)C2=C(C1)Nc1nccc(CC3CC3)c1C2(C)c1ccccc1 (single isomer, unassigned) [Compound 123B] | –
– | – | 1000 to 5000 | 1000 to 5000 | CC1(C)CC(=O)C2=C(C1)Nc1ncccc1C2(C)c1cccc(-c2ccncc2C2CCC2)c1 (single isomer, unassigned) [Compound 151A] | –
5000 to 20000 | 5000 to 20000 | – | – | Cc1cnc2c(c1C)C(C)(c1ccccc1)C1=C(CC(C)(C)CC1=O)N2 (single isomer, unassigned) [601B] | –
– | – | 1000 to 5000 | 5000 to 20000 | CC1(C)CC(=O)C2=C(C1)Nc1ncccc1C2(C)c1cccc(-c2ccncc2C(C)(C)C)c1 (single isomer, unassigned) [Compound 152A] | –
5000 to 20000 | 5000 to 20000 | – | – | Cn1ncc2c3c(ncc21)NC1=C(C(=O)CC(C)(C)C1)C3(C)c1cccc(S(C)(=O)=O)c1 (single isomer, unassigned) [649B] | –
– | – | 5000 to 20000 | 1000 to 5000 | CC1(C)CC(=O)C2=C(C1)Nc1ncc(C(F)(F)F)cc1C2(C)c1ccccc1 (single isomer, unassigned) [Compound 128A] | –
